Measured values: US7006929B2, “Signal detecting sensor provided with multi-electrode” (Matsushita Electric Industrial Co., Ltd., priority 2001, dated 2006)

Tested on: artificially reconstructed neural cell network (rat cerebral cortex neurons)
Assay: stimulus transmission in reconstructed neural cell network on 64-electrode sensor
Format: cell-based
Conditions: 40 μM, treated for 10 minutes; constant voltage stimulus at one electrode (row 5, column 5)
Procedure: Neurons were prepared from the cerebral cortex of gestation day 17 rat embryos and were suspended in Dulbecco's modified medium, and were dispensed into each container of a sensor comprising 64 electrodes and containers as shown in FIG. 3 at a concentration of 5×10^5 cells/ml, followed by culturing for two weeks. As a result, an artificial neural cell network was reconstructed on the sensor. The sensor containing the reconstructed neural cell network was used as follows. An apparatus having the configuration of FIG. […] The transmission of the stimulus was measured by detecting cell potentials at the remaining 63 electrodes. […] A neural cell network reconstructed as in Examples 1 and 2 was treated with 40 μM DNQX (6,7-Dinitroquinoxaline-2,3(1H,4H)-dione) for 10 minutes. As in Example 2, a constant voltage stimulus was applied to a cell on a sensor. The transmission of the stimulus was measured by detecting cell potentials at the remaining 63 electrodes.

## O=c1[nH]c2cc([N+](=O)[O-])c([N+](=O)[O-])cc2[nH]c1=O [DNQX, 6,7-Dinitroquinoxaline-2,3(1H,4H)-dione]
  response (cell potentials) at the remaining 63 electrodes to constant voltage stimulus: a response was not observed at any of the electrodes
